From PubChem BioAssay (NCI)
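The compound was tested at five concentrations on cells cultured in 96-well plates, with a 48-hour exposure period. GI50: concentration for 50% inhibition of growth. TGI marks complete inhibition of growth.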

Legend:
Assay in all cases: NCI-60 cell line screen, 48 h
SK-OV-3 ovarian = system: SK-OV-3 ovarian
HOP-62 NSCLC = system: HOP-62 NSCLC
OVCAR-5 ovarian = system: OVCAR-5 ovarian
NCI/ADR-RES ovarian = system: NCI/ADR-RES ovarian
UACC-257 melanoma = system: UACC-257 melanoma
786-0 renal = system: 786-0 renal
SF-295 CNS = system: SF-295 CNS
PC-3 prostate = system: PC-3 prostate
MALME-3M melanoma = system: MALME-3M melanoma
UO-31 renal = system: UO-31 renal
A498 renal = system: A498 renal
KM12 colon = system: KM12 colon
MCF7 breast = system: MCF7 breast
HS 578T breast = system: HS 578T breast
HT29 colon = system: HT29 colon
SN12C renal = system: SN12C renal
NCI-H522 lung = system: NCI-H522 lung
HCC-2998 colon = system: HCC-2998 colon
UACC-62 melanoma = system: UACC-62 melanoma
DU-145 prostate = system: DU-145 prostate
NCI-H226 lung = system: NCI-H226 lung
COLO 205 colon = system: COLO 205 colon
CCRF-CEM leukemia = system: CCRF-CEM leukemia
MDA-MB-435 = system: MDA-MB-435
A549 NSCLC = system: A549 NSCLC
LOX IMVI melanoma = system: LOX IMVI melanoma
SW-620 colon = system: SW-620 colon
SK-MEL-2 melanoma = system: SK-MEL-2 melanoma
MDA-MB-468 breast = system: MDA-MB-468 breast
ACHN renal = system: ACHN renal
MDA-MB-231 breast = system: MDA-MB-231 breast
SR leukemia = system: SR leukemia
EKVX NSCLC = system: EKVX NSCLC
SF-539 CNS = system: SF-539 CNS
T-47D breast = system: T-47D breast
OVCAR-4 ovarian = system: OVCAR-4 ovarian
RXF 393 renal = system: RXF 393 renal
SK-MEL-5 melanoma = system: SK-MEL-5 melanoma
OVCAR-3 ovarian = system: OVCAR-3 ovarian
CAKI-1 renal = system: CAKI-1 renal
IGROV1 ovarian = system: IGROV1 ovarian
BT-549 breast = system: BT-549 breast
SNB-19 CNS = system: SNB-19 CNS
RPMI-8226 leukemia = system: RPMI-8226 leukemia
U251 CNS = system: U251 CNS
SF-268 CNS = system: SF-268 CNS
OVCAR-8 ovarian = system: OVCAR-8 ovarian
SK-MEL-28 melanoma = system: SK-MEL-28 melanoma
NCI-H23 lung = system: NCI-H23 lung
TK-10 renal = system: TK-10 renal
HCT-15 colon = system: HCT-15 colon

CCN1CCN(Cc2ccc(C(=O)Nc3cccc(C#Cc4cccc5[nH]nc(N)c45)c3)cc2C(F)(F)F)CC1
GI50 (SK-OV-3 ovarian): 2190 nM
TGI (SK-OV-3 ovarian): 4560 nM
GI50 (HOP-62 NSCLC): 1730 nM
TGI (HOP-62 NSCLC): 3640 nM
GI50 (OVCAR-5 ovarian): 1470 nM
TGI (OVCAR-5 ovarian): 3030 nM
GI50 (NCI/ADR-RES ovarian): 1800 nM
TGI (NCI/ADR-RES ovarian): 4040 nM
GI50 (UACC-257 melanoma): 1470 nM
TGI (UACC-257 melanoma): 2860 nM
GI50 (786-0 renal): 1470 nM
TGI (786-0 renal): 2840 nM
GI50 (SF-295 CNS): 1430 nM
TGI (SF-295 CNS): 2820 nM
GI50 (PC-3 prostate): 1300 nM
TGI (PC-3 prostate): 2780 nM
GI50 (MALME-3M melanoma): 509 nM
TGI (MALME-3M melanoma): 1820 nM
GI50 (UO-31 renal): 1430 nM
TGI (UO-31 renal): 2930 nM
GI50 (A498 renal): 2540 nM
TGI (A498 renal): 4210 nM
GI50 (KM12 colon): 1660 nM
TGI (KM12 colon): 3270 nM
GI50 (MCF7 breast): 1610 nM
TGI (MCF7 breast): 3050 nM
GI50 (HS 578T breast): 2140 nM
TGI (HS 578T breast): 6680 nM
GI50 (HT29 colon): 1100 nM
TGI (HT29 colon): 2450 nM
GI50 (SN12C renal): 1180 nM
TGI (SN12C renal): 2480 nM
GI50 (NCI-H522 lung): 1100 nM
TGI (NCI-H522 lung): 2400 nM
GI50 (HCC-2998 colon): 1300 nM
TGI (HCC-2998 colon): 2560 nM
GI50 (UACC-62 melanoma): 1320 nM
TGI (UACC-62 melanoma): 2620 nM
GI50 (DU-145 prostate): 1530 nM
TGI (DU-145 prostate): 3120 nM
GI50 (NCI-H226 lung): 1190 nM
TGI (NCI-H226 lung): 3600 nM
GI50 (COLO 205 colon): 1190 nM
TGI (COLO 205 colon): 2720 nM
GI50 (CCRF-CEM leukemia): 1600 nM
TGI (CCRF-CEM leukemia): 3620 nM
GI50 (MDA-MB-435): 1230 nM
TGI (MDA-MB-435): 2500 nM
GI50 (A549 NSCLC): 1300 nM
TGI (A549 NSCLC): 2600 nM
GI50 (LOX IMVI melanoma): 739 nM
TGI (LOX IMVI melanoma): 1990 nM
GI50 (SW-620 colon): 1230 nM
TGI (SW-620 colon): 2810 nM
GI50 (SK-MEL-2 melanoma): 1470 nM
TGI (SK-MEL-2 melanoma): 2930 nM
GI50 (MDA-MB-468 breast): 1030 nM
TGI (MDA-MB-468 breast): 2320 nM
GI50 (ACHN renal): 598 nM
TGI (ACHN renal): 1870 nM
GI50 (MDA-MB-231 breast): 919 nM
TGI (MDA-MB-231 breast): 2140 nM
GI50 (SR leukemia): 1780 nM
TGI (SR leukemia): 4590 nM
GI50 (EKVX NSCLC): 1350 nM
TGI (EKVX NSCLC): 2790 nM
GI50 (SF-539 CNS): 533 nM
TGI (SF-539 CNS): 1760 nM
GI50 (T-47D breast): 2250 nM
TGI (T-47D breast): 6180 nM
GI50 (OVCAR-4 ovarian): 1040 nM
TGI (OVCAR-4 ovarian): 5300 nM
GI50 (RXF 393 renal): 1100 nM
TGI (RXF 393 renal): 2490 nM
GI50 (SK-MEL-5 melanoma): 1540 nM
TGI (SK-MEL-5 melanoma): 2900 nM
GI50 (OVCAR-3 ovarian): 1180 nM
TGI (OVCAR-3 ovarian): 2860 nM
GI50 (CAKI-1 renal): 1450 nM
TGI (CAKI-1 renal): 2780 nM
GI50 (IGROV1 ovarian): 965 nM
TGI (IGROV1 ovarian): 2480 nM
GI50 (BT-549 breast): 1640 nM
TGI (BT-549 breast): 3060 nM
GI50 (SNB-19 CNS): 1950 nM
TGI (SNB-19 CNS): 3630 nM
GI50 (RPMI-8226 leukemia): 1590 nM
TGI (RPMI-8226 leukemia): 3920 nM
GI50 (U251 CNS): 1510 nM
TGI (U251 CNS): 2850 nM
GI50 (SF-268 CNS): 1430 nM
TGI (SF-268 CNS): 3330 nM
GI50 (OVCAR-8 ovarian): 1430 nM
TGI (OVCAR-8 ovarian): 2800 nM
GI50 (SK-MEL-28 melanoma): 1630 nM
TGI (SK-MEL-28 melanoma): 3000 nM
GI50 (NCI-H23 lung): 1410 nM
TGI (NCI-H23 lung): 2760 nM
GI50 (TK-10 renal): 1890 nM
TGI (TK-10 renal): 3380 nM
GI50 (HCT-15 colon): 721 nM
TGI (HCT-15 colon): 2020 nM
